≈ marks a conversion by molar mass, not a printed value. Calls of active or inactive are those of the source. The calls are words filed in the database; no cut-off is given here.
Assays:
[1] = molecular target: Fibroblast growth factor receptor 4 (Homo sapiens, UniProt P22455); assay: Inhibition of FGFR4 (unknown origin) using Poly (Glu,Tyr) 4:1 as substrate incubated for 60 mins in presence of ATP by ELISA analysis
[2] = Solubility of compound in PBS at pH 7.4 at 1 to 100 microg/ml by laser nephelometry analysis; format: physicochemical; conditions: dose 1-100 µg/ml
[3] = Stability in rat whole blood assessed as parent compound remaining measured upto 5 hrs by LC-MS/MS analysis; format: ADME, tissue-based
[4] = GSH reactivity in PBS buffer assessed as percentage peak area ratio incubated for 24 hrs by LC-MS/MS analysis; format: physicochemical
[5] = molecular target: T1, Fibroblast growth factor receptor (Homo sapiens) (UniProt P22607+P11362+P22455+P21802); assay: Inhibition of FGFR signalling in human SNU-16 assessed as inhibition of pErk phosphorylation at 0.1 nM incubated for 2 hrs by Western blot analysis; format: cell-based
[6] = molecular target: T1, Fibroblast growth factor receptor (Homo sapiens); assay: Inhibition of FGFR signalling in human SNU-16 assessed as inhibition of PLCgamma phosphorylation at 0.1 nM incubated for 2 hrs by Western blot analysis; format: cell-based
[7] = molecular target: Voltage-gated inwardly rectifying potassium channel KCNH2 (Homo sapiens, UniProt Q12809); assay: Inhibition of hERG expressed in CHO cells at -80 mV holding potential by automated patch clamp method; format: toxicity, cell-based
[8] = molecular target: Vascular endothelial growth factor receptor 1 (Homo sapiens) (UniProt P17948); assay: Inhibition of VEGFR1 (unknown origin) at 1 uM using Poly (Glu,Tyr) 4:1 as substrate incubated for 60 mins in presence of ATP by ELISA analysis relative to control
[9] = molecular target: Fibroblast growth factor receptor 3 (Homo sapiens, UniProt P22607, V555M); assay: Inhibition of FGFR3 V555M mutant (unknown origin)
[10] = test system: NCI-H522; assay: Antiproliferative activity against human NCI-H522 cells assessed as reduction in cell viability measured after 72 hrs; format: functional, cell-based; conditions: NCI-H522, 72 h
[11] = test system: PC-9; assay: Antiproliferative activity against human PC-9 cells assessed as reduction in cell viability measured after 72 hrs; format: functional, cell-based; conditions: PC-9, 72 h
[12] = test system: NCI-H1666; assay: Antiproliferative activity against human NCI-H1666 cells assessed as reduction in cell viability measured after 72 hrs; format: functional, cell-based; conditions: NCI-H1666, 72 h
[13] = test system: NCI-H226; assay: Antiproliferative activity against human NCI-H226 cells assessed as reduction in cell viability measured after 72 hrs; format: functional, cell-based; conditions: NCI-H226, 72 h
[14] = test system: HCC4006; assay: Antiproliferative activity against human HCC4006 cells assessed as reduction in cell viability measured after 72 hrs; format: functional, cell-based; conditions: HCC4006, 72 h
[15] = test system: SU.86.86; assay: Antiproliferative activity against human SU-86-86 cells assessed as reduction in cell viability measured after 72 hrs; format: functional, cell-based; conditions: SU.86.86, 72 h
[16] = test system: CAPAN-1; assay: Antiproliferative activity against human CAPAN-1 cells assessed as reduction in cell viability measured after 72 hrs; format: functional, cell-based; conditions: CAPAN-1, 72 h
[17] = test system: ASPC1; assay: Antiproliferative activity against human ASPC1 cells assessed as reduction in cell viability measured after 72 hrs; format: functional, cell-based; conditions: ASPC1, 72 h
[18] = test system: NCI-H3122; assay: Antiproliferative activity against human NCI-H3122 cells assessed as reduction in cell viability measured after 72 hrs; format: functional, cell-based; conditions: NCI-H3122, 72 h
[19] = test system: NCI-H2286; assay: Antiproliferative activity against human NCI-H2286 cells assessed as reduction in cell viability measured after 72 hrs; format: functional, cell-based; conditions: NCI-H2286, 72 h
[20] = test system: NCI-H520; assay: Antiproliferative activity against human NCI-H520 cells assessed as reduction in cell viability measured after 72 hrs; format: functional, cell-based; conditions: NCI-H520, 72 h
[21] = Tmax in CD-1 mouse at 3 mg/kg, po measured after 24 hrs by LC-MS/MS analysis; format: ADME, organism-based; conditions: in vivo
[22] = Cmax in CD-1 mouse at 3 mg/kg, po measured after 24 hrs by LC-MS/MS analysis; format: ADME, organism-based; set-up: time 24 hrs, dose 3 mg/kg, route po; conditions: in vivo
[23] = AUC (0 to t) in CD-1 mouse at 3 mg/kg, po measured after 24 hrs by LC-MS/MS analysis; format: ADME, organism-based; set-up: time 24 hrs, dose 3 mg/kg, route po; conditions: in vivo
[24] = AUC (0 to infinity) in CD-1 mouse at 1 mg/kg, iv measured after 24 hrs by LC-MS/MS analysis; format: ADME, organism-based; set-up: dose 1 mg/kg, time 24 hrs, route iv; conditions: in vivo
[25] = MRT in CD-1 mouse at 3 mg/kg, po measured after 24 hrs by LC-MS/MS analysis; format: ADME, organism-based; conditions: in vivo
[26] = MRT in CD-1 mouse at 1 mg/kg, iv measured after 24 hrs by LC-MS/MS analysis; format: ADME, organism-based; conditions: in vivo
[27] = Half life in CD-1 mouse at 1 mg/kg, iv measured after 24 hrs by LC-MS/MS analysis; format: ADME, organism-based; conditions: in vivo
[28] = Oral bioavailability in CD-1 mouse at 3 mg/kg measured after 24 hrs by LC-MS/MS analysis; format: ADME, organism-based; conditions: in vivo
[29] = test system: NCI-H716; assay: Antitumor activity against human NCI-H716 cells xenografted in nude mouse assessed as tumor growth inhibition at 200 mg/kg, po administered once daily for 18 days by microcaliper analysis relative to control; format: functional; set-up: scale not given: the % may be the effect or the level left; conditions: time 18 day
[30] = molecular target: Fibroblast growth factor receptor 1 (Homo sapiens, UniProt P11362); conditions: dose 100.0 nM, time 60.0 min
Fibroblast growth factor receptor 1, sequence (P11362 22-822 limits assumed): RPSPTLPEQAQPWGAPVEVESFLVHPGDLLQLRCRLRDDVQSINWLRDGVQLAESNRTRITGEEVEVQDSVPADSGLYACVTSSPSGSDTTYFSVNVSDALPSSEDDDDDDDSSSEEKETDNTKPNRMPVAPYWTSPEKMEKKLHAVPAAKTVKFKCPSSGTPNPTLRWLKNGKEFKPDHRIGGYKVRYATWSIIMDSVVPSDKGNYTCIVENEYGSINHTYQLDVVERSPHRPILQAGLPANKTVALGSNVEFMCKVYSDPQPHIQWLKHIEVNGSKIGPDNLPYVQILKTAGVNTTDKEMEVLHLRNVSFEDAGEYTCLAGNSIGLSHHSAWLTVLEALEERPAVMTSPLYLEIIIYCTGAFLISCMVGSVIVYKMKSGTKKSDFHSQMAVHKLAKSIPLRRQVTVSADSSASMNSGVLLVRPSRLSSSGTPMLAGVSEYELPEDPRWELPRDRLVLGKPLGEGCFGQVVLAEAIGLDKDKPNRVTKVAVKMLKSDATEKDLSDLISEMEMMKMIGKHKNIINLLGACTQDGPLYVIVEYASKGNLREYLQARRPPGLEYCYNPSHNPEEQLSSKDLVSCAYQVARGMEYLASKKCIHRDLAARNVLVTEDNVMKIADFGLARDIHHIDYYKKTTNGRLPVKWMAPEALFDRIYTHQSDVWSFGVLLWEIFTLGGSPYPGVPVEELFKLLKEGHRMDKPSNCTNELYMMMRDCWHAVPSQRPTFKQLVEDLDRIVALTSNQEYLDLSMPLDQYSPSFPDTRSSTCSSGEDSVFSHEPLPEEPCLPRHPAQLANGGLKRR

T1 sequence (P11362 whole entry, looked up): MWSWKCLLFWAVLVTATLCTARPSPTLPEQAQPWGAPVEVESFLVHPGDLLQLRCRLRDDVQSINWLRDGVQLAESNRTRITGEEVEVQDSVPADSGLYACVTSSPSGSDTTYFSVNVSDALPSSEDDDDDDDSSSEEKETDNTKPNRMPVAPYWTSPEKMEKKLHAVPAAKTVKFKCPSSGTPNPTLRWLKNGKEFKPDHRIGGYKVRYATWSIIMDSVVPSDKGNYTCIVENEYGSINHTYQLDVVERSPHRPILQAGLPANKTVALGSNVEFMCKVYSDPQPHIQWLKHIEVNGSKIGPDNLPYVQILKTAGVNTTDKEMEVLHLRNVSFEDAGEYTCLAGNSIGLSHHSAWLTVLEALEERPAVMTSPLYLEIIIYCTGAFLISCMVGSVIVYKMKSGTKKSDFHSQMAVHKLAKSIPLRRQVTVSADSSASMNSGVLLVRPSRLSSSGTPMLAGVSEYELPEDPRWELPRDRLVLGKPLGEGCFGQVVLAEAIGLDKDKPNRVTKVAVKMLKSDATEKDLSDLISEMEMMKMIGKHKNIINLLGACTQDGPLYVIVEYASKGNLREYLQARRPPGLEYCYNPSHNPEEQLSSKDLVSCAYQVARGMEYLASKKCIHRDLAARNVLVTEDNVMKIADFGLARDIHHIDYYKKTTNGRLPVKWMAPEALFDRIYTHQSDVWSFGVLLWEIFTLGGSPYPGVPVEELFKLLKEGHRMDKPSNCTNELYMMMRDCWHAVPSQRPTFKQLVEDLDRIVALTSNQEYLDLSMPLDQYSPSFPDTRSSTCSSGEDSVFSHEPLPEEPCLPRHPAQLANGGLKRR
T1 sequence (P21802 whole entry, looked up): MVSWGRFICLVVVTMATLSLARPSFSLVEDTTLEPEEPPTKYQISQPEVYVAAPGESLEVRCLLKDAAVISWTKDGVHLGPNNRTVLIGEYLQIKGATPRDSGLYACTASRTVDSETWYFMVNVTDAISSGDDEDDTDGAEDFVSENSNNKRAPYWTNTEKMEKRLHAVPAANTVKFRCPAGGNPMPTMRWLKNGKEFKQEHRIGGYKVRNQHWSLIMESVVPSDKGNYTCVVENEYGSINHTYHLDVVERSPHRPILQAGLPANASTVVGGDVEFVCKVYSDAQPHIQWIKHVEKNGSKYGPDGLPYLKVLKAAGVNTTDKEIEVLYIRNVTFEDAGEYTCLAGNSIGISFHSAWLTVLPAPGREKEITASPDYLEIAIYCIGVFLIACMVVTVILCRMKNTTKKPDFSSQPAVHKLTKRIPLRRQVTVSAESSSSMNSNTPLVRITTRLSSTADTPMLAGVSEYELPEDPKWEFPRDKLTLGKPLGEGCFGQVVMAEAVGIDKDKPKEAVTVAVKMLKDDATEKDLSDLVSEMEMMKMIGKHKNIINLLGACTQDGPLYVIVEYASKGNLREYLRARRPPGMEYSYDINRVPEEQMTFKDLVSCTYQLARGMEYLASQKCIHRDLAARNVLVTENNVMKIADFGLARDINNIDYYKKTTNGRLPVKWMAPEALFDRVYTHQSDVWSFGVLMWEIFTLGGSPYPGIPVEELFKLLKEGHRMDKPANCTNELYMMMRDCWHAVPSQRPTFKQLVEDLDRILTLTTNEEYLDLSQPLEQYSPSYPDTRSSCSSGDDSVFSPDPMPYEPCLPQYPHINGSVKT
T1 sequence (P22455 whole entry, looked up): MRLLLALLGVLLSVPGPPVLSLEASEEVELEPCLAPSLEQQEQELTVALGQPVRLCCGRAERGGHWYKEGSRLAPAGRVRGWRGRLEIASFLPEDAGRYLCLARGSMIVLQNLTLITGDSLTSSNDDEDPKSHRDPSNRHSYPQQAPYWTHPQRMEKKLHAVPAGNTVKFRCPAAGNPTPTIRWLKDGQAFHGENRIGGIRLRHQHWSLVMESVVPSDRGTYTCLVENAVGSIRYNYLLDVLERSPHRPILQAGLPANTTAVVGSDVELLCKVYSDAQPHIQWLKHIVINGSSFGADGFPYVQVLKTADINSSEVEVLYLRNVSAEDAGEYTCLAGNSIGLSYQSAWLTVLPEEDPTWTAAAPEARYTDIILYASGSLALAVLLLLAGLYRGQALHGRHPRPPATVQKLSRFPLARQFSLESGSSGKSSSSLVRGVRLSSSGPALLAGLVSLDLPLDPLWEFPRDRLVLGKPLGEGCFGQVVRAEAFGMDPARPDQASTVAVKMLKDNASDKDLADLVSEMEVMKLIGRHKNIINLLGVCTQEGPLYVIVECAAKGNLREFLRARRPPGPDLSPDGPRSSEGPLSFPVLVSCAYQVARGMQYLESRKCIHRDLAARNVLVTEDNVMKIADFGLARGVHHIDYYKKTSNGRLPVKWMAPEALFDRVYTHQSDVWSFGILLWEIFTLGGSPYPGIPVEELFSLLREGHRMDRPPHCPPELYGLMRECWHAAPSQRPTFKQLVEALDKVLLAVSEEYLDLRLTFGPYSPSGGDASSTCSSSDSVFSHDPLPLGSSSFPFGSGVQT
T1 sequence (P22607 whole entry, looked up): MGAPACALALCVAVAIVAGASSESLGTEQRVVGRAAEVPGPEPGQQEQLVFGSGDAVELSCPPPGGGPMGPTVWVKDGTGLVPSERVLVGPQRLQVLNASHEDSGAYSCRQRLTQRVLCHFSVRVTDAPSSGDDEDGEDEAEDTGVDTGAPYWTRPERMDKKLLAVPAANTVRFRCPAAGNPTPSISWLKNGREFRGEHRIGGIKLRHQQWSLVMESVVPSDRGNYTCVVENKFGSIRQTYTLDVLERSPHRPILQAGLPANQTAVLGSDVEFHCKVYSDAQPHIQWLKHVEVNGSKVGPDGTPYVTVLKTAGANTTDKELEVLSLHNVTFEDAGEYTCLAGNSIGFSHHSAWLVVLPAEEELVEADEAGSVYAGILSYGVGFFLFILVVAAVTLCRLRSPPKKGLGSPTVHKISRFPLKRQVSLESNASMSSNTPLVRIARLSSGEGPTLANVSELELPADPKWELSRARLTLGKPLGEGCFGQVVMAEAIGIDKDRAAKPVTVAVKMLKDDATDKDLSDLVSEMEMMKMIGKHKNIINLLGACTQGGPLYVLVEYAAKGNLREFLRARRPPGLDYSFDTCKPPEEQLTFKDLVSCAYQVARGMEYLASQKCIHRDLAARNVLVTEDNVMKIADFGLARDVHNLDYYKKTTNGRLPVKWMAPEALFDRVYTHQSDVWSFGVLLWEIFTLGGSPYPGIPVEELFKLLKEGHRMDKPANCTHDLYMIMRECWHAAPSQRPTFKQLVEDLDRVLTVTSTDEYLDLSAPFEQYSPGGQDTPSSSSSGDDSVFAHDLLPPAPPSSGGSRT
Fibroblast growth factor receptor 3, sequence (P22607 23-806 V555M limits assumed): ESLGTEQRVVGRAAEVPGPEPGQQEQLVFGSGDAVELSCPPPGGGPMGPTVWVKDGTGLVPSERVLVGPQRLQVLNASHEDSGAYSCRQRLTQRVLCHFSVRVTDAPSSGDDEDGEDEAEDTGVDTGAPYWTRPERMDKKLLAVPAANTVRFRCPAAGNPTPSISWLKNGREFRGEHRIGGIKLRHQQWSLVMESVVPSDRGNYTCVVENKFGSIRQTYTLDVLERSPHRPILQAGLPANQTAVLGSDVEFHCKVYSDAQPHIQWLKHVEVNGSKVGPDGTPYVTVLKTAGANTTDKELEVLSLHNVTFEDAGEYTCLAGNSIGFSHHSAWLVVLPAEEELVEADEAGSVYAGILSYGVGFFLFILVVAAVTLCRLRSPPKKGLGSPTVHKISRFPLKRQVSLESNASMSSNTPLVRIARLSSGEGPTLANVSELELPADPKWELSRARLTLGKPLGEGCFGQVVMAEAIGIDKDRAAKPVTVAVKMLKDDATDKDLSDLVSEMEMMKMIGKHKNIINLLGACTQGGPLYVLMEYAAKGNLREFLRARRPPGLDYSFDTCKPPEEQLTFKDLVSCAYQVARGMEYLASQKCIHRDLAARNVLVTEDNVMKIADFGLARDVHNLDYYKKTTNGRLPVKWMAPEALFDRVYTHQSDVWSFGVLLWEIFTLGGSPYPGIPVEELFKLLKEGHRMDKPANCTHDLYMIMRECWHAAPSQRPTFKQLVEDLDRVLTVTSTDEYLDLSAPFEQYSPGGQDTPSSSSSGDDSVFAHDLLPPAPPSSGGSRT
Fibroblast growth factor receptor 4, sequence (P22455 whole entry): as the sequence (P22455 whole entry, looked up) above

Compound: C=CC(=O)N1CCCC(n2nc3c(=O)[nH]nc(N)c3c2-c2oc3ccc(C)cc3c2C)C1 (stereo not given)
- IC50 [1]: 0.155 µM
- solubility kinetic [2]: 50 µg/mL (≈ 116 µM)
- Stability [3]: Stable
- Activity [4]: 65%
- inhibition [5]: Active
- inhibition [6]: Active
- IC50 [7]: 17.2 µM
- inhibition [8]: < 50%
- IC50 [9]: 2 µM
- IC50 [10]: > 10 µM
- IC50 [11]: > 10 µM
- IC50 [12]: > 10 µM
- IC50 [13]: > 10 µM
- IC50 [14]: > 10 µM
- IC50 [15]: > 10 µM
- IC50 [16]: > 10 µM
- IC50 [17]: > 10 µM
- IC50 [18]: > 10 µM
- IC50 [19]: > 10 µM
- IC50 [20]: > 10 µM
- Tmax [21]: 15 min
- Cmax [22]: 174 ng/mL
- AUC(0-t) at 24 h [23]: 70.2 ng·h/mL
- AUC [24]: 116 ng·h/mL
- MRT [25]: 69.6 min
- MRT [26]: 15.1 min
- half-life [27]: 37.5 min
- bioavailability [28]: 20.4%
- Activity [29]: 83.5%
- inhibition [30]: 102%

Reference: ChEMBL document CHEMBL5247642, “Structural Optimization of Fibroblast Growth Factor Receptor Inhibitors for Treating Solid Tumors” (J Med Chem, 2023)
